The values below come from ChEMBL document CHEMBL1141870, “Discovery of potent chromen-4-one inhibitors of the DNA-dependent protein kinase (DNA-PK) using a small-molecule library approach” (J Med Chem, 2005).

Chain of DNA-dependent protein kinase catalytic subunit (P78527 whole entry): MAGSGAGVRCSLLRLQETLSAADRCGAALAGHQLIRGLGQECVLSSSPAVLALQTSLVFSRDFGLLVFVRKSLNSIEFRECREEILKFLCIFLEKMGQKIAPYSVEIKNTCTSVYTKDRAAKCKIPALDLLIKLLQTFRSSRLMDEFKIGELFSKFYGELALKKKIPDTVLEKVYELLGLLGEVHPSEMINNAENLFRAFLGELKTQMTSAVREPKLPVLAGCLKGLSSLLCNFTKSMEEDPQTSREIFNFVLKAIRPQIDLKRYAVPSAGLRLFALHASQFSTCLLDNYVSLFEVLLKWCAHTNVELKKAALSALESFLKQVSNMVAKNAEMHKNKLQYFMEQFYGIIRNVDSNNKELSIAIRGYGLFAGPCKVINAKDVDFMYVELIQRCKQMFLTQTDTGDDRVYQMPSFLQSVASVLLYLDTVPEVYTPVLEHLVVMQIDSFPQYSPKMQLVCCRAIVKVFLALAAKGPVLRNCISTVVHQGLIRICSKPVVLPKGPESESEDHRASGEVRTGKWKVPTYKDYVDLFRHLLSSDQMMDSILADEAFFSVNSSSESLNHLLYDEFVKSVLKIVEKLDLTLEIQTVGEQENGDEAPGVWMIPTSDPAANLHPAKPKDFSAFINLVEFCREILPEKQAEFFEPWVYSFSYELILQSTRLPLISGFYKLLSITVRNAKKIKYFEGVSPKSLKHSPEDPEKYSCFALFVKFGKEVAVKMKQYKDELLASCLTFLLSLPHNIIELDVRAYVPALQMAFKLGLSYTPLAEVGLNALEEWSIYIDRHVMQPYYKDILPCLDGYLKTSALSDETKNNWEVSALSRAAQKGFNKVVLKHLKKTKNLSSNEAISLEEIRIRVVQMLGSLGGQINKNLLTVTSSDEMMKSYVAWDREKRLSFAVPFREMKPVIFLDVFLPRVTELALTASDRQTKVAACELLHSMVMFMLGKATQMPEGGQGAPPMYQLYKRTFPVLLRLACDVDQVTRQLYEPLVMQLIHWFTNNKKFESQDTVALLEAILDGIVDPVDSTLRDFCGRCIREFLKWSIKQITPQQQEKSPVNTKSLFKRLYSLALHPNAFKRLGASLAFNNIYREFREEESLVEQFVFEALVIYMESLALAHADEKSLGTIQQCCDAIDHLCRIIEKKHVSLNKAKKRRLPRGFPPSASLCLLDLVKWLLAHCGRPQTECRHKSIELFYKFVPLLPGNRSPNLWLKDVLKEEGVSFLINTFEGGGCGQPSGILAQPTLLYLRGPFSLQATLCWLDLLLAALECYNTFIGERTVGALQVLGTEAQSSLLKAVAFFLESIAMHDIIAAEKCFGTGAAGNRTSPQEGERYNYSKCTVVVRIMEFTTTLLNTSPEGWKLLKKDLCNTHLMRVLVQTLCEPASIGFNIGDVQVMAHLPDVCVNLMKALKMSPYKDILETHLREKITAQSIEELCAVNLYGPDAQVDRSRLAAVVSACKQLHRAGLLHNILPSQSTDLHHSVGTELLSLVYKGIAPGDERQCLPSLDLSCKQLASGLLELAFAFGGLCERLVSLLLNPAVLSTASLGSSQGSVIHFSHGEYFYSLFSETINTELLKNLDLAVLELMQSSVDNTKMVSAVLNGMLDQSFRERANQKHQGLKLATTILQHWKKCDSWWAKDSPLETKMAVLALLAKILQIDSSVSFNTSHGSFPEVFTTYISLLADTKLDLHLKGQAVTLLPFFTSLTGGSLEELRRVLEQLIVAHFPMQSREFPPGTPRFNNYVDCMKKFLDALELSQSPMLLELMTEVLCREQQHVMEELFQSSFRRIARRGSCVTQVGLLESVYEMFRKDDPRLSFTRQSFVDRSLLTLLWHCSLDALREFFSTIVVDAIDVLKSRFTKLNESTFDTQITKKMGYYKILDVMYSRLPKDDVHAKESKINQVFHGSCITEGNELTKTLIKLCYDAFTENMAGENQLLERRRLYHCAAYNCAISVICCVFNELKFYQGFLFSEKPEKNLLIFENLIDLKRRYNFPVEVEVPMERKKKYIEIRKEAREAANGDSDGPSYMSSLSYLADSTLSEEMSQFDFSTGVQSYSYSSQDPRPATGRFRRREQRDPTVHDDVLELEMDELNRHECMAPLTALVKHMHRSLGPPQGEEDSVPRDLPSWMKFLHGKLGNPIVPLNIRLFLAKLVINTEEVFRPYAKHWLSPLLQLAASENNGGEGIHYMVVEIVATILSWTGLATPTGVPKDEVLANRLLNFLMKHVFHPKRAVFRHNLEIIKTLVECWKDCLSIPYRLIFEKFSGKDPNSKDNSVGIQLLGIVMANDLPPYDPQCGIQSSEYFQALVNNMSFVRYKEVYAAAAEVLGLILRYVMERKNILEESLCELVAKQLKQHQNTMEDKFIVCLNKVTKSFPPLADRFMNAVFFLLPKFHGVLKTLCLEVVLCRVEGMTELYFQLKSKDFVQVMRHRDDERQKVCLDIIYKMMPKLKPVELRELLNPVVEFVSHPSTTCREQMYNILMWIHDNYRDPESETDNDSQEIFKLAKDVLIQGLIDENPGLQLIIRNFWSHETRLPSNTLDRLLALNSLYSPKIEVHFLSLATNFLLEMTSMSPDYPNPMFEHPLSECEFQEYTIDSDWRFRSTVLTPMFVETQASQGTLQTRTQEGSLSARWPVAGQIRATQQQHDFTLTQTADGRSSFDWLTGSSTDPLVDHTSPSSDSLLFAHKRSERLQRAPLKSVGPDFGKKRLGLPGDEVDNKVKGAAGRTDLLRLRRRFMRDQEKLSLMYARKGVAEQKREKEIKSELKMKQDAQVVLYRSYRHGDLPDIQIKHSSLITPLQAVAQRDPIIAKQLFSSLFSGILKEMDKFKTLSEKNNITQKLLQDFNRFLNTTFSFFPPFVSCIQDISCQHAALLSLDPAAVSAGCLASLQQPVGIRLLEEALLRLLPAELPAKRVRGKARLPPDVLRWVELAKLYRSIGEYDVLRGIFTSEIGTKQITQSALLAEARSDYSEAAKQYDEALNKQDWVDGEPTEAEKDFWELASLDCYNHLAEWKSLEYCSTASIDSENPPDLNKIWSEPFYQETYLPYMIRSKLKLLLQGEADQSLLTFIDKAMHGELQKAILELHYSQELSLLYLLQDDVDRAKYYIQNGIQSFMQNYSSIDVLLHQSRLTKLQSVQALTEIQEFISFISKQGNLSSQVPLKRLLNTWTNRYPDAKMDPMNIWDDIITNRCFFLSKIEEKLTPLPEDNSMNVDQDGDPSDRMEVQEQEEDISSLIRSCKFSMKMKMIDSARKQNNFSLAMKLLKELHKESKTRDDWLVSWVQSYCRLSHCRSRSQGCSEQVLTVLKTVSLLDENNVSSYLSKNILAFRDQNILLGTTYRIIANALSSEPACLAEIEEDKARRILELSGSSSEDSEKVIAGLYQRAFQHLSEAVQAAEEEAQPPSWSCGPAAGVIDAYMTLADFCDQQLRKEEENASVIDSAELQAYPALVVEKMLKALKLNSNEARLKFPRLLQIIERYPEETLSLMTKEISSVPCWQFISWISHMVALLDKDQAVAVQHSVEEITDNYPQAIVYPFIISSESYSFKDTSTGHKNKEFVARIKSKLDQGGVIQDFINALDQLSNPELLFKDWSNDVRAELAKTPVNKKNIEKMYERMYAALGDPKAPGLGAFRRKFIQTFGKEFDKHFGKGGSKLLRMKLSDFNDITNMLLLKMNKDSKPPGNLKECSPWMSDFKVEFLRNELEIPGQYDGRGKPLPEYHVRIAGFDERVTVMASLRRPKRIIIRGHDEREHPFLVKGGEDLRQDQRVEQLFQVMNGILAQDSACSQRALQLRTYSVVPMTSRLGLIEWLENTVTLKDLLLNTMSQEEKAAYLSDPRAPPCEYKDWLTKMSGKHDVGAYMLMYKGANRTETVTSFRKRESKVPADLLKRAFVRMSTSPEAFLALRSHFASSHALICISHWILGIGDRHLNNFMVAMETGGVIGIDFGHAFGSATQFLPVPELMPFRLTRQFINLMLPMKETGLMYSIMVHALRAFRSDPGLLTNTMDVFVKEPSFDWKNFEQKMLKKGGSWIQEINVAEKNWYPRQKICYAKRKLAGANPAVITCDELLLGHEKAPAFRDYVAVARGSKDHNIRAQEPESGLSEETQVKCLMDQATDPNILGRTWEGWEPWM

The assay addresses DNA-dependent protein kinase catalytic subunit (Homo sapiens, UniProt P78527). In words: Inhibition against DNA-dependent protein kinase receptor at 0.5uM.
With `N#Cc1ccc(-c2ccc3oc(N4CCOCC4)cc(=O)c3c2)cc1`, the inhibition (in general, the percentage by which the read-out fell short of the control) was 37%.

Molecule `CCOC(=O)c1cccc(-c2ccc3oc(N4CCOCC4)cc(=O)c3c2)c1` showed an inhibition of 13%. For `O=c1cc(N2CCOCC2)oc2cc(-c3ccc(CO)cc3)ccc12`, the inhibition stood at 35%.

Consider `O=c1cc(N2CCOCC2)oc2ccc(/C=C/c3ccc(F)cc3)cc12`, for which the inhibition is 57%. On to `NC(=O)c1ccccc1-c1ccc2oc(N3CCOCC3)cc(=O)c2c1`, for which the inhibition came out at 43%. The same measure for `O=c1cc(N2CCOCC2)oc2ccc(-c3ccccc3OCc3ccccc3)cc12`: 40%.

`COC(=O)c1ccccc1-c1ccc2c(=O)cc(N3CCOCC3)oc2c1` displayed an inhibition of 30%. Take `CC(=O)c1cccc(-c2ccc3c(=O)cc(N4CCOCC4)oc3c2)c1`: the inhibition came out at 6%.

For `O=c1cc(N2CCOCC2)oc2cc(-c3ccccc3-c3ccccc3)ccc12`, the inhibition is 25%.

Turning to `CCOC(=O)c1cccc(-c2ccc3c(=O)cc(N4CCOCC4)oc3c2)c1`, the inhibition is 26%. Consider `O=c1cc(N2CCOCC2)oc2ccc(-c3ccccc3C(F)(F)F)cc12`, for which the inhibition came to 7%.

As to `O=c1cc(N2CCOCC2)oc2ccc(-c3ccc(Cl)cc3)cc12`, the inhibition is 6%. Take `O=c1cc(N2CCOCC2)oc2ccc(-c3ccco3)cc12`: the inhibition was 14%.

In turn, `O=c1cc(N2CCOCC2)oc2ccc(-c3ccccc3CO)cc12` came in with an inhibition of 48%.

Molecule `COC(=O)/C=C/c1cccc(-c2ccc3c(=O)cc(N4CCOCC4)oc3c2)c1` registered an inhibition of 34%. With `O=c1cc(N2CCOCC2)oc2ccc(/C=C/c3ccccc3)cc12`, the inhibition was found to be 6%. `O=c1cc(N2CCOCC2)oc2ccc(-c3cccc4c3sc3ccccc34)cc12` came in with an inhibition of 14%. The molecule `COc1ccc(-c2ccc3oc(N4CCOCC4)cc(=O)c3c2)cc1` yielded an inhibition of 57%. The same measure for `CC(C)(C)c1ccccc1-c1ccc2c(=O)cc(N3CCOCC3)oc2c1`: 20%; for `O=c1cc(N2CCOCC2)oc2ccc(-c3ccc(OC(F)(F)F)cc3)cc12`: 19%; for `Cc1ccc(-c2ccc3oc(N4CCOCC4)cc(=O)c3c2)c2ccccc12`: 25%. The same measure for `O=c1cc(N2CCOCC2)oc2ccc(-c3ccc4ncccc4c3)cc12`: 13%. For the molecule `O=c1cc(N2CCOCC2)oc2cc(-c3ccc(Cl)cc3)ccc12`, the inhibition came out at 4%. The molecule `CC(=O)Nc1ccccc1-c1ccc2oc(N3CCOCC3)cc(=O)c2c1` had an inhibition of 60%. Take `O=C1c2ccccc2C(=O)N1Cc1ccc(-c2ccc3oc(N4CCOCC4)cc(=O)c3c2)cc1`: the inhibition was 49%.

In the case of `CC(=O)Nc1ccc(-c2ccc3c(=O)cc(N4CCOCC4)oc3c2)cc1`, the inhibition turned out to be 20%. For the molecule `O=c1cc(N2CCOCC2)oc2ccc(-c3csc4ccccc34)cc12`, the inhibition came out at 50%. Regarding `O=c1cc(N2CCOCC2)oc2ccc(-c3cccc(CO)c3)cc12`, the inhibition is 51%. `CC(=O)c1cccc(-c2ccc3oc(N4CCOCC4)cc(=O)c3c2)c1` gave an inhibition of 46%. The molecule `CC(=O)Nc1cccc(-c2ccc3c(=O)cc(N4CCOCC4)oc3c2)c1` displayed an inhibition of 28%. The molecule `O=c1cc(N2CCOCC2)oc2ccc(-c3cccc4c3oc3ccccc34)cc12` had an inhibition of 37%.

For the molecule `CC(=O)Nc1ccccc1-c1ccc2c(=O)cc(N3CCOCC3)oc2c1`, the inhibition was 21%. Take `O=c1cc(N2CCOCC2)oc2cc(-c3ccc(O)cc3)ccc12`: the inhibition was 22%. As for `O=c1cc(N2CCOCC2)oc2ccc(-c3cc(C(F)(F)F)cc(C(F)(F)F)c3)cc12`, the inhibition is 13%. On to `CC(=O)c1ccccc1-c1ccc2oc(N3CCOCC3)cc(=O)c2c1`, for which the inhibition was determined as 61%. As to `O=c1cc(N2CCOCC2)oc2ccc(-c3cccc4ccccc34)cc12`, the inhibition was determined as 52%. With `O=c1cc(N2CCOCC2)oc2cc(-c3ccc(-c4ccccc4)cc3)ccc12`, the inhibition is 35%. `O=C(OCc1ccccc1)c1ccc(-c2ccc3c(=O)cc(N4CCOCC4)oc3c2)cc1` returned an inhibition of 24%.
